Here are results for 12 compounds from patent US20260007758A1, “SO[…]-2 RECEPTOR (SST2R) NON-PEPTIDE DRUG CONJUGATES AND USES THEREOF” (Crinetics Pharmaceuticals, Inc., priority 2024, published 2026).

*1 amine or outer side, *2 acyl side, *3 side chain or, on linkers, in order; H or OH if unused. Where a SMILES comes first, the peptide text is derived from it. [ ]: non-standard residue; d: D form. The star is where a group is joined. X3 = Cc1cc(F)cc(-c2cnc(NCCNC(=O)CCOCCOCCOCCOCCC(=O)*)c(-c3nc4ccc(Cl)cc4[nH]3)c2N2CCC(N)CC2)c1; Dolaproine = CO[C@@H]([C@@H]1CCCN1)[C@@H](C)C(=O)O; Dil = CC[C@H](C)[C@H](NC)[C@@H](CC(=O)O)OC; PABC = O=C(OCc1ccc(N[*:1])cc1)[*:2]; X2 = C[C@@H](N*)[C@@H](O)c1ccccc1; Cit = NC(=O)NCCC[C@H](N)C(=O)O; NMeV = CN[C@H](C(=O)O)C(C)C; Ahx = NCCCCCC(=O)O

Common to all, as to format: cell-based
The target in test [1] is T1, human somatostatin receptor subtype 2 (Homo sapiens, UniProt P30874).
T1 construct: expressed in transfected cells
In words: Functional assay for SSTR2 agonists (HTRF cAMP). The following applies: CHO-K1 cells stably expressing human SST2; NKH477-stimulated cAMP; 20 min at 37 C; read-out: hSST2 cAMP Avg EC50. The source says: General overview: All five SSTR subtypes are Gi coupled G-protein coupled receptors (GPCRs) that lead to decreases in intracellular cyclic AMP (cAMP) when activated by an agonist. Therefore, measurement of intracellular cAMP levels can be used to assess whether compounds of the invention are agonists of SSTR subtypes (John Kelly, Troy Stevens, W. Joseph Thompson, and Roland Seifert, Current Protocols in Pharmacology. 2005, 2.2.1-2.2). One example of an intracellular cAMP assay is described below.
Four days prior to the assay, 2,000 Chinese hamster ovary cells (CHO-K1, ATCC #CCL-61) stably expressing the human somatostatin receptor subtype 2 are plated in each well of a 96-well tissue culture-treated plate in Ham's F12 growth media (ThermoFisher #10-080-CM) supplemented with 10% donor bovine serum (Gemini Bio-Products #100-506), 100 U/mL penicillin; 100 ug/mL streptomycin, 2 mM L-glutamine (Gemini Bio-Products #400-110) and 0.2 mg/mL hygromycin B (GoldBio #31282-04-9). The cells are cultured at 37° C., 5% CO2 and 95% humidity. cAMP is measured with HTRF dynamic cAMP assay (Cisbio. #62AM5PEJ) per manufacturer's instructions. […] The cells are incubated for 20 minutes at 37° C. (the final concentration of the compounds of the invention are typically 0-10,000 nM). The cells are treated with 50 μL of lysis buffer (HRTF cAMP kit, Cisbio) and incubated at room temperature for 30 minutes with rotary shaking at 600 rpm, and then diluted with 150 μL of stimulation buffer and shaken for an additional five minutes at 300 rpm. The lysate is transferred to 384-well plates and incubated for 1-24 hours at room temperature, and cAMP accumulation is detected by d2-labeled cAMP and Anti-cAMP-Cryptate. The time-resolved fluorescent signal is read using a m1000 Pro (Tecan) or CLARIOStar (BMG Labtech) microplate reader, where the samples are excited with light at 340 nm and emission light is measured at 620 nm and 665 nm. The data is expressed as a calculation of the fluorescence ratio (665 nm/620 nm). The intracellular cAMP concentrations are calculated by regression to a standard curve and are plotted vs, the concentration of the compounds of the invention. The EC50 of the compounds are calculated using standard methods. All data manipulations are in GraphPad Prism v9 (GraphPad, San Diego, CA).
(TR-FRET usually uses a lanthanide donor and a delayed reading to cut background.)

Another test addresses T2, SST2 (Homo sapiens, UniProt P30874).
T2 construct: host or cells: PathHunter CHO-K1 SST2 cells
Put plainly: PathHunter CHO-K1 SST2 Internalization Assay. The following applies: PathHunter CHO-K1 SST2 cells; 90 min at 37 C; luminescence; read-out: Internalization EC50. How it is done:
NDCs of the present invention were assessed in vitro using the human PathHunter CHO-K1 SST2 β-arrestin2 and PathHunter CHO-K1 SST2 Internalization Assays from DiscoverX. The CHO-K cells were seeded in 20 μLs of cell culture medium in a white-walled 384 well tissue culture-compatible plate at a density of 2500 cells/well. After a 48-hour incubation, cells were treated with 5 μLs of a 1:3 serially diluted SST2 NDC prepared at 5× concentration with a final top compound concentration of 10 uM for 90 min at 37 C and in 5% CO2. 11 dilutions were tested as well as one treatment that was compound free. After incubation, the media containing treatments were discarded and 20 μL of a working solution of Beta-Glo from Promega Beta-Go Assay System was added to each well. The plate was then incubated for 60 min at room temperature in the dark. Luminescence was measured using a Tecan plate reader. IC50 curves were generated using the nonlinear regression analysis (four-parameters) with GraphPad Prism 9. Results were the average of duplicates and are corrected for background.

Test [2] relates to NCI-H524 human small cell lung cancer cells. Put plainly: H524 assay: inhibition of cell proliferation (CellTiter Glo). As to conditions: 2 h treatment, washout, additional 70 h incubation. How it is done:
NDCs of the present invention were assessed in an in vitro assay evaluating the inhibition of cell proliferation. NCI-H524 (ATCC) human small cell lung cancer cells were plated in 96-well V-bottom plates (Costar) at a concentration of 5,000 cells/well. 24 h later, the cells were treated for 2 h with a NDC. NDC starting dose was 1 uM and two-fold serial dilutions were done for a total of 11 points. After 2 h of treatment, cells were spun down, and the drug-containing media was removed, and fresh complete media was added and used to resuspend the cells, which were spun again. After removal of the media, the cells were resuspended in complete medium and incubated for an additional 70 h. Cell proliferation was assessed using the CellTiter Glo Assay according to the standard protocol (Promega). Luminescence was measured using a TECAN plate reader. Percent proliferation inhibition was calculated using the following formula: % inhibition=(Luminescence Control−Luminescence Treatment)/Luminescence Control*100. IC50 curves were generated using the nonlinear regression analysis (four-parameter) with GraphPad Prism 9.
In general terms: In ATP-based viability assays light output follows the ATP content of the culture.

T1 sequence (P30874 whole entry): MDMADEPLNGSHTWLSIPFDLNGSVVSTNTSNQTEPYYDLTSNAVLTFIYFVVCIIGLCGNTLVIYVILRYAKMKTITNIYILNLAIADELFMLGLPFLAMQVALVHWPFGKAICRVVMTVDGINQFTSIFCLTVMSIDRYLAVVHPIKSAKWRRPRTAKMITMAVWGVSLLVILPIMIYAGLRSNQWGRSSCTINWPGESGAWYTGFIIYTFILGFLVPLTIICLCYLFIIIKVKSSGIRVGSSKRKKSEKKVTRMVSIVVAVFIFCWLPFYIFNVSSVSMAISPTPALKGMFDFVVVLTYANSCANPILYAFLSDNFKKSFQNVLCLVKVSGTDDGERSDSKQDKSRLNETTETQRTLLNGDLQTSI
T2 sequence (P30874 whole entry): as above

As a reminder, the EC50 is the concentration needed to bring the measured effect to its halfway point. On to `CC[C@H](C)[C@@H]([C@@H](CC(=O)N1CCC[C@H]1[C@H](OC)[C@@H](C)C(=O)N[C@H](C)[C@@H](O)c1ccccc1)OC)N(C)C(=O)[C@@H](NC(=O)[C@H](C(C)C)N(C)C(=O)OCc1ccc(NC(=O)[C@H](CCCNC(N)=O)NC(=O)[C@@H](NC(=O)CCOCCOCCOCCOCCC(=O)N(C)CC(=O)NCCNc2ncc(-c3cc(C)cc(F)c3)c(N3CCC(N)CC3)c2-c2nc3ccc(Cl)cc3[nH]2)C(C)C)c(OCC(=O)O)c1)C(C)C` [Compound 24], for which the EC50 in test [1] worked out at 0.2 nM; on SST2 it was 20 nM; in test [2], 100 nM. `CC[C@H](C)[C@@H]([C@@H](CC(=O)N1CCC[C@H]1[C@H](OC)[C@@H](C)C(=O)N[C@H](C)[C@@H](O)c1ccccc1)OC)N(C)C(=O)[C@@H](NC(=O)[C@H](C(C)C)N(C)C(=O)OCc1ccc(NC(=O)C(CCCNC(N)=O)NC(=O)C2(NC(=O)CCOCCC(=O)NCCNc3ncc(-c4cc(C)cc(F)c4)c(N4CCC(N)CC4)c3-c3nc4ccc(Cl)cc4[nH]3)CCC2)c(O[C@@H]2O[C@H](C(=O)O)[C@@H](O)[C@H](O)[C@H]2O)c1)C(C)C` (stereo partly drawn) [Compound 242]: the EC50 amounted to 0.045 nM in test [1], 2.5 nM at SST2 and 70 nM in test [2]. With `CC[C@H](C)[C@@H]([C@@H](CC(=O)N1CCC[C@H]1[C@H](OC)[C@@H](C)C(=O)N[C@H](C)[C@@H](O)c1ccccc1)OC)N(C)C(=O)[C@@H](NC(=O)[C@H](C(C)C)N(C)C(=O)OCc1ccc(NC(=O)[C@H](CCCNC(N)=O)NC(=O)[C@@H](NC(=O)CCCC(=O)N(C)CC(=O)N(C)CC(=O)N(C)CC(=O)NCCNc2ncc(-c3cc(C)cc(F)c3)c(N3CCC(N)CC3)c2-c2nc3ccc(Cl)cc3[nH]2)C(C)C)c(O[C@@H]2O[C@H](C(=O)O)[C@@H](O)[C@H](O)[C@H]2O)c1)C(C)C` [Compound 130], in test [2], it took 3800 nM to reach a half-maximal effect (EC50). For the compound `CC[C@H](C)[C@@H]([C@@H](CC(=O)N1CCC[C@H]1[C@H](OC)[C@@H](C)C(=O)N[C@H](C)[C@@H](O)c1ccccc1)OC)N(C)C(=O)[C@@H](NC(=O)[C@H](C(C)C)N(C)C(=O)OCc1ccc(O[C@@H]2O[C@H](C(=O)O)[C@@H](O)[C@H](O)[C@H]2O)c(NC(=O)[C@H](CCCNC(N)=O)NC(=O)[C@@H](NC(=O)CCOCCC(=O)NCCNc2ncc(-c3cc(C)cc(F)c3)c(N3CCC(N)CC3)c2-c2nc3ccc(Cl)cc3[nH]2)C(C)C)c1)C(C)C` [Compound 248], in test [2], a half-maximal effect (EC50) was put at 3.2 nM.

In the case of `CC[C@H](C)[C@@H]([C@@H](CC(=O)N1CCC[C@H]1[C@H](OC)[C@@H](C)C(=O)N[C@H](C)[C@@H](O)c1ccccc1)OC)N(C)C(=O)[C@@H](NC(=O)[C@H](C(C)C)N(C)C(=O)OCc1ccc(NC(=O)[C@H](CCCNC(N)=O)NC(=O)[C@@H](NC(=O)CCOCCC(=O)NCCNc2ncc(-c3cc(C)cc(F)c3)c(N3CCC(N)CC3)c2-c2nc3ccc(Cl)cc3[nH]2)C(C)C)cc1C(=O)NCC(=O)O)C(C)C` [Compound 60], in test [1], the EC50 stood at 0.17 nM. The same measure, in the same setting: the figure for `CC[C@H](C)[C@@H]([C@@H](CC(=O)N1CCC[C@H]1[C@H](OC)[C@@H](C)C(=O)N[C@H](C)[C@@H](O)c1ccccc1)OC)N(C)C(=O)[C@@H](NC(=O)[C@H](C(C)C)N(C)C(=O)OCc1ccc(NC(=O)[C@H](C)NC(=O)[C@@H](NC(=O)CCOCCC(=O)N(C)CC(=O)NCCNc2ncc(-c3cc(C)cc(F)c3)c(N3CCC(N)CC3)c2-c2cc3ccc(Cl)cc3[nH]2)C(C)C)c(O[C@@H]2O[C@H](C(=O)NCCN)[C@@H](O)[C@H](O)[C@H]2O)c1)C(C)C` [Compound 46] is 0.23 nM; for `CC[C@H](C)[C@@H]([C@@H](CC(=O)N1CCC[C@H]1[C@H](OC)[C@@H](C)C(=O)N[C@H](C)[C@@H](O)c1ccccc1)OC)N(C)C(=O)[C@@H](NC(=O)[C@H](C(C)C)N(C)C(=O)OCc1ccc(NC(=O)[C@H](C)NC(=O)[C@@H](NC(=O)CCOCCC(=O)N(C)CC(=O)NCCNc2ncc(-c3cc(C)cc(F)c3)c(N3CCC(N)CC3)c2-c2cc3ccc(Cl)cc3[nH]2)C(C)C)c(O[C@@H]2O[C@H](C(=O)NCCN)[C@@H](O)[C@H](O)[C@H]2O)c1)C(C)C` [Compound 47] it is 0.31 nM. As to `CC[C@H](C)[C@@H]([C@@H](CC(=O)N1CCC[C@H]1[C@H](OC)[C@@H](C)C(=O)N[C@H](C)[C@@H](O)c1ccccc1)OC)N(C)C(=O)[C@@H](NC(=O)[C@H](C(C)C)N(C)C(=O)OCc1ccc(NC(=O)[C@H](CCCNC(N)=O)NC(=O)[C@@H](NC(=O)CCOCCC(=O)NCCNc2ncc(-c3cc(C)cc(F)c3)c(N3CCC(N)CC3)c2-c2nc3ccc(Cl)cc3[nH]2)C(C)C)c(O[C@@H]2O[C@H](C(=O)NCCNC(=O)CCCCCCCCCCCCCCC(=O)O)[C@@H](O)[C@H](O)[C@H]2O)c1)C(C)C` [Compound 53], the half-maximal effective concentration (EC50) in test [1] was determined as 0.48 nM; in test [2], 200 nM. On to `CC[C@H](C)[C@@H]([C@@H](CC(=O)N1CCC[C@H]1[C@H](OC)[C@@H](C)C(=O)N[C@H](C)[C@@H](O)c1ccccc1)OC)N(C)C(=O)[C@@H](NC(=O)[C@H](C(C)C)N(C)C(=O)OCc1ccc(NC(=O)[C@H](CCCNC(N)=O)NC(=O)[C@@H](NC(=O)CCCCCNC(=O)[C@H](CCC(N)=O)NC(=O)[C@H](CCC(N)=O)NC(=O)CCOCCOCCOCCOCCC(=O)NCCNc2ncc(-c3cc(C)cc(F)c3)c(N3CCC(N)CC3)c2-c2nc3ccc(Cl)cc3[nH]2)C(C)C)cc1)C(C)C` [Compound 143] (X3-QQ[Ahx]V[Cit][PABC][NMeV]V[Dil][Dolaproine]-X2), for which, in test [1], the EC50 was 0.4 nM. Same read-out and setting: the same measure for `CC[C@H](C)[C@@H]([C@@H](CC(=O)N1CCC[C@H]1[C@H](OC)[C@@H](C)C(=O)N[C@H](C)[C@@H](O)c1ccccc1)OC)N(C)C(=O)[C@@H](NC(=O)[C@H](C(C)C)N(C)C(=O)OCc1ccc(NC(=O)[C@H](C)NC(=O)[C@@H](NC(=O)CCCC(=O)N(C)CC(=O)NCCNc2ncc(-c3cc(C)cc(F)c3)c(N3CCC(N)CC3)c2-c2nc3ccc(Cl)cc3[nH]2)C(C)C)c(O[C@@H]2O[C@H](C(=O)NCCN)[C@@H](O)[C@H](O)[C@H]2O)c1)C(C)C` [Compound 45]: 1.3 nM; for `CC[C@H](C)[C@@H]([C@@H](CC(=O)N1CCC[C@H]1[C@H](OC)[C@@H](C)C(=O)N[C@H](C)[C@@H](O)c1ccccc1)OC)N(C)C(=O)[C@@H](NC(=O)[C@H](C(C)C)N(C)C(=O)OCc1ccc(NC(=O)[C@H](CCCNC(N)=O)NC(=O)[C@@H](NC(=O)CCOCCC(=O)NCCNc2ncc(-c3cc(C)cc(F)c3)c(N3CCC(N)CC3)c2-c2nc3ccc(Cl)cc3[nH]2)C(C)C)cc1C(=O)O)C(C)C` [Compound 7]: 0.26 nM. As to `CC[C@H](C)[C@@H]([C@@H](CC(=O)N1CCC[C@H]1[C@H](OC)[C@@H](C)C(=O)N[C@H](C)[C@@H](O)c1ccccc1)OC)N(C)C(=O)[C@@H](NC(=O)[C@H](C(C)C)N(C)C(=O)OCc1ccc(NC(=O)[C@H](C)NC(=O)[C@@H](NC(=O)C[C@@H](N)C(=O)NCCOCCC(=O)NCCNc2ncc(-c3cc(C)cc(F)c3)c(N3CCC(NC)CC3)c2-c2nc3ccc(Cl)cc3[nH]2)C(C)C)c(O[C@@H]2O[C@H](C(=O)O)[C@@H](O)[C@H](O)[C@H]2O)c1)C(C)C` [Compound 135], the EC50 was 0.42 nM in test [1] and 3.6 nM at SST2.
